target: T1, human CXCR3 (Homo sapiens, UniProt P49682); experiment: [35S]GTPγS exchange assay, CXCR3 receptor inhibition (hI-TAC-induced GTPγS-binding); assay type: biochemical; settings: -log IC50 (molar) inhibiting 50% of specific I-TAC-induced GTPγS-binding; membranes of human CXCR3-transfected CHO cells
T1 construct: expressed in transfected cells; host or cells: CHO cells (membrane preparation)
T1 sequence (P49682 1-368): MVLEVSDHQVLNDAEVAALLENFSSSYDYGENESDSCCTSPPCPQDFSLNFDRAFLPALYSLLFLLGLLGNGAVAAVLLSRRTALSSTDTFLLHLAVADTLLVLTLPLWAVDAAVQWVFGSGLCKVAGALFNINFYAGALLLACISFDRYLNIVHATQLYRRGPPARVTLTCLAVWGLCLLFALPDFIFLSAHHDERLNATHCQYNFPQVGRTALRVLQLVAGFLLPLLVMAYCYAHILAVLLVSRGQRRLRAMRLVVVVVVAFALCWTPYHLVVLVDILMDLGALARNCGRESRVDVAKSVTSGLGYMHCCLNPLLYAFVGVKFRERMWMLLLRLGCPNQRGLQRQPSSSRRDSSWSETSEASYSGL
Description: CXCR3 Receptor Inhibition was Examined in a [^35S]GTPγS Exchange Assay
The exchange of guanosine 5′-[^35S]triphosphate was measured on membranes of human CXCR3-transfected CHO cells. [^35S]GTPγS exchange assays were performed in 96-well plates with 10 μg of membrane protein/well using basic flashplates (Perkin Elmer). Compounds were dissolved in DMSO and diluted with incubation buffer to yield required concentrations with 9% DMSO. Incubation buffer is composed of 20 mM HEPES, 100 mM NaCl, 3 μM GDP and 1 mM MgCl2, pH 7.4. […] Compound, membranes, hI-TAC (interferon-inducible T-cell alpha chemoattractant) and [^35S]GTPγS were added in a total volume of 200 μl. First, 20 μl of the appropriate compound dilution and 140 μl membranes from CXCR3-CHO cells were dissolved in membrane incubation buffer and pre-incubated for 30 minutes at 30° C. Then, 20 μl of hI-TAC dissolved at 30 nM in incubation buffer was added to the membranes and the mixture containing 1% of DMSO was incubated for another 30 minutes at 30° C. […] After 1 minute shaking and 30 minutes incubation at 30° C., flashplates were centrifuged for 5 minutes at 2500 rpm at room temperature. Flashplate bound radioactivity was determined by liquid scintillation counting. Basal GTPγS-binding was measured in 8 wells with membranes incubated in the same volume with 1% DMSO, without I-TAC. Maximal GTPγS-binding was measured in 8 wells with membranes incubated with 1% DMSO and 3 nM I-TAC. […] IC50 values were calculated using non-linear regression in Graphpad Prism.

First: O=C1CCC(c2ccccc2)(C2CCN(Cc3ccc(Cl)c(Cl)c3)CC2)C(=O)N1 (stereo not shown) [Compound 80]
Second: CCN1C(=O)CCC(c2ccccc2)(C2CCN(Cc3ccc(Br)cc3)CC2)C1=O (stereo not shown) [Compound 126]
The pIC50 of the first is higher: 5.9 for the first, 5.6 for the second.

Going from `O=C1CCC(c2cccc(C(=O)NCCCO)c2)(C2CCN(Cc3ccc(Br)cc3)CC2)C(=O)N1` (stereo not shown) [Compound 91] to `COCCN1C(=O)CCC(c2ccccc2)(C2CCN(Cc3ccc(Br)cc3)CC2)C1=O` (stereo not shown) [Compound 129], the pIC50 falls from 5.9 to 5.7.

`CC(C)N1C(=O)CCC(c2ccccc2)(C2CCN(Cc3ccc(Br)cc3)CC2)C1=O` (stereo not shown) [Compound 127] gave a pIC50 of 5.3.

same assay, conditions: -log IC50 (molar) inhibiting 50% of specific I-TAC-induced GTPγS-binding; membranes of human CXCR3-transfected CHO cells; read-out: pIC50 (converted)

`COc1ccc(C2(C3CCN(Cc4ccc(Cl)cc4)CC3)CCC(=O)NC2=O)cc1` (stereo not shown) [Compound 69] and `COc1ccc(C2(C3CCN(Cc4ccc(Br)cc4)CC3)CCC(=O)NC2=O)cc1` (stereo not shown) [Compound 93] are within 1.5-fold of each other in IC50: 3.16 µM for the first, 3.98 µM for the second.

`O=C1CCC(c2ccccc2)(C2CCN(Cc3ccc(Cl)cc3Cl)CC2)C(=O)N1` (stereo not shown) [Compound 70] and `O=C1CCC(c2cccc(Cl)c2)(C2CCN(Cc3ccc(Cl)cc3Cl)CC2)C(=O)N1` (stereo not shown) [Compound 71] are the same in IC50: 2.51 µM for the first, 2.51 µM for the second.

Compared with `Cc1cccc(C2(C3CCN(Cc4ccc(Cl)cc4Cl)CC3)CCC(=O)NC2=O)c1` (stereo not shown) [Compound 72], `COc1cccc(C2(C3CCN(Cc4ccc(Cl)cc4Cl)CC3)CCC(=O)NC2=O)c1` (stereo not shown) [Compound 74] is 1.6-fold lower in IC50: 6.31 µM for the first, 3.98 µM for the second.

`O=C1CCC(c2cccc(C(=O)O)c2)(C2CCN(Cc3ccc(Cl)cc3Cl)CC2)C(=O)N1` (stereo not shown) [Compound 73] and `O=C1CCC(c2cccc(C(=O)O)c2)(C2CCN(Cc3ccc(Cl)c(Cl)c3)CC2)C(=O)N1` (stereo not shown) [Compound 83] are within 1.5-fold of each other in IC50: 0.501 µM for the first, 0.398 µM for the second.

Going from `O=C1CCC(c2ccc(F)cc2)(C2CCN(Cc3ccc(Cl)cc3Cl)CC2)C(=O)N1` (stereo not shown) [Compound 75] to `O=C1CCC(c2ccc(F)cc2)(C2CCN(Cc3ccc(Cl)c(Cl)c3)CC2)C(=O)N1` (stereo not shown) [Compound 85], the IC50 falls from 2.51 µM to 0.794 µM (3.2-fold).

`O=C1CCC(c2cccc(Cl)c2)(C2CCN(Cc3ccc(Cl)c(F)c3)CC2)C(=O)N1` (stereo not shown) [Compound 77] and `Cc1cccc(C2(C3CCN(Cc4ccc(Cl)c(F)c4)CC3)CCC(=O)NC2=O)c1` (stereo not shown) [Compound 78] are the same in IC50: 0.794 µM for the first, 0.794 µM for the second.

Compared with `COc1cccc(C2(C3CCN(Cc4ccc(Cl)c(F)c4)CC3)CCC(=O)NC2=O)c1` (stereo not shown) [Compound 79], `COc1cccc(C2(C3CCN(Cc4ccc(Cl)c(Cl)c4)CC3)CCC(=O)NC2=O)c1` (stereo not shown) [Compound 84] is 8-fold higher in IC50: 0.251 µM for the first, 2 µM for the second.

`O=C1CCC(c2cccc(Cl)c2)(C2CCN(Cc3ccc(Cl)c(Cl)c3)CC2)C(=O)N1` (stereo not shown) [Compound 81] and `Cc1cccc(C2(C3CCN(Cc4ccc(Cl)c(Cl)c4)CC3)CCC(=O)NC2=O)c1` (stereo not shown) [Compound 82] are within 1.5-fold of each other in IC50: 3.98 µM for the first, 3.16 µM for the second.

First: O=C1CCC(c2cccc(Cl)c2)(C2CCN(Cc3ccc(Br)cc3)CC2)C(=O)N1 (stereo not shown) [Compound 89]
Second: CSc1ccc(CN2CCC(C3(c4cccc(Cl)c4)CCC(=O)NC3=O)CC2)cc1 (stereo not shown) [Compound 117]
The IC50 of the first is 4-fold lower: 1.58 µM for the first, 6.31 µM for the second.

Compared with `O=C1CCC(c2cccc(C(F)(F)F)c2)(C2CCN(Cc3ccc(Br)cc3)CC2)C(=O)N1` (stereo not shown) [Compound 90], `O=C1CCC(c2cccc(Cl)c2)(C2CCN(Cc3ccc(C(F)(F)F)cc3)CC2)C(=O)N1` (stereo not shown) [Compound 103] is 2.5-fold higher in IC50: 1.58 µM for the first, 3.98 µM for the second.

Compared with `O=C1CCC(c2ccc(F)cc2)(C2CCN(Cc3ccc(Br)cc3)CC2)C(=O)N1` (stereo not shown) [Compound 92], `O=C1CCC(c2ccc(F)cc2)(C2CCN(Cc3ccc(C(F)(F)F)cc3)CC2)C(=O)N1` (stereo not shown) [Compound 106] is 4-fold higher in IC50: 1 µM for the first, 3.98 µM for the second.

Compared with `O=C1CCC(c2ccccc2)(C2CCN(Cc3ccc(Br)cc3F)CC2)C(=O)N1` (stereo not shown) [Compound 94], `O=C1CCC(c2cccc(Cl)c2)(C2CCN(Cc3ccc(Br)cc3F)CC2)C(=O)N1` (stereo not shown) [Compound 95] is 3.2-fold higher in IC50: 0.501 µM for the first, 1.58 µM for the second.

First: O=C1CCC(c2cccc(C(F)(F)F)c2)(C2CCN(Cc3ccc(Br)cc3F)CC2)C(=O)N1 (stereo not shown) [Compound 96]
Second: O=C1CCC(c2cccc(C(=O)O)c2)(C2CCN(Cc3ccc(Br)cc3F)CC2)C(=O)N1 (stereo not shown) [Compound 97]
The IC50 of the first is 6.3-fold higher: 3.16 µM for the first, 0.501 µM for the second.

Compared with `O=C1CCC(c2ccc(F)cc2)(C2CCN(Cc3ccc(Br)cc3F)CC2)C(=O)N1` (stereo not shown) [Compound 98], `O=C1CCC(c2ccc(F)cc2)(C2CCN(Cc3ccc(OC(F)F)cc3)CC2)C(=O)N1` (stereo not shown) [Compound 111] is 1.6-fold higher in IC50: 0.631 µM for the first, 1 µM for the second.

First: O=C1CCC(c2cccc(C(=O)O)c2)(C2CCN(Cc3ccc(Br)c(F)c3)CC2)C(=O)N1 (stereo not shown) [Compound 99]
Second: Cc1ccc(CN2CCC(C3(c4cccc(C)c4)CCC(=O)NC3=O)CC2)cc1 (stereo not shown) [Compound 101]
The IC50 of the first is 6.3-fold lower: 0.398 µM for the first, 2.51 µM for the second.

Compared with `O=C1CCC(c2ccccc2)(C2CCN(Cc3ccc(C(F)(F)F)cc3)CC2)C(=O)N1` (stereo not shown) [Compound 102], `O=C1CCC(c2ccccc2)(C2CCN(Cc3ccc(OC(F)(F)F)cc3)CC2)C(=O)N1` (stereo not shown) [Compound 112] is 4-fold lower in IC50: 3.98 µM for the first, 1 µM for the second.

Going from `Cc1cccc(C2(C3CCN(Cc4ccc(C(F)(F)F)cc4)CC3)CCC(=O)NC2=O)c1` (stereo not shown) [Compound 104] to `O=C1CCC(c2cccc(C(F)(F)F)c2)(C2CCN(Cc3ccc(OC(F)F)cc3)CC2)C(=O)N1` (stereo not shown) [Compound 110], the IC50 rises from 3.98 µM to 7.94 µM (2-fold).

Going from `COc1ccc(CN2CCC(C3(c4ccccc4)CCC(=O)NC3=O)CC2)cc1` (stereo not shown) [Compound 107] to `O=C1CCC(c2ccccc2)(C2CCN(Cc3ccc(OC(F)F)cc3)CC2)C(=O)N1` (stereo not shown) [Compound 109], the IC50 falls from 3.98 µM to 1 µM (4-fold).

Going from `COc1ccc(CN2CCC(C3(c4ccccc4)CCC(=O)NC3=O)CC2)c(OC)c1` (stereo not shown) [Compound 108] to `CSc1ccc(CN2CCC(C3(c4ccccc4)CCC(=O)NC3=O)CC2)cc1` (stereo not shown) [Compound 116], the IC50 falls from 7.94 µM to 5.01 µM (1.6-fold).

Going from `O=C1CCC(c2ccc(F)cc2)(C2CCN(Cc3ccc(OC(F)(F)F)cc3)CC2)C(=O)N1` (stereo not shown) [Compound 113] to `O=C1CCC(c2cccc(Cl)c2)(C2CCN(Cc3ccc(OC(F)(F)F)cc3)CC2)C(=O)N1` (stereo not shown) [Compound 114], the IC50 rises from 5.01 µM to 7.94 µM (1.6-fold).

Compared with `O=C1CCC(c2ccccc2)(C2CCN(Cc3ccc(OCc4ccccc4)cc3)CC2)C(=O)N1` (stereo not shown) [Compound 119], `CN1C(=O)CCC(c2ccccc2)(C2CCN(Cc3ccc(Cl)cc3)CC2)C1=O` (stereo not shown) [Compound 120] is 4-fold lower in IC50: 6.31 µM for the first, 1.58 µM for the second.

First: COC(=O)CCN1C(=O)CCC(c2ccccc2)(C2CCN(Cc3ccc(Cl)cc3)CC2)C1=O (stereo not shown) [Compound 121]
Second: COC(=O)CCN1C(=O)CCC(c2ccccc2)(C2CCN(Cc3ccc(Br)cc3)CC2)C1=O (stereo not shown) [Compound 130]
The IC50 of the first is 1.6-fold higher: 6.31 µM for the first, 3.98 µM for the second.

`CN1C(=O)CCC(c2ccccc2)(C2CCN(Cc3ccc(Cl)c(Cl)c3)CC2)C1=O` (stereo not shown) [Compound 122] and `CN1C(=O)CCC(c2ccccc2)(C2CCN(Cc3ccc(C(F)(F)F)cc3)CC2)C1=O` (stereo not shown) [Compound 131] are within 1.5-fold of each other in IC50: 5.01 µM for the first, 3.98 µM for the second.

Going from `COC(=O)CCN1C(=O)CCC(c2ccccc2)(C2CCN(Cc3ccc(Cl)cc3Cl)CC2)C1=O` (stereo not shown) [Compound 124] to `COC(=O)CCN1C(=O)CCC(c2ccccc2)(C2CCN(Cc3ccc(C(F)(F)F)cc3)CC2)C1=O` (stereo not shown) [Compound 132], the IC50 falls from 1 µM to 0.631 µM (1.6-fold).

Going from `CCCN1C(=O)CCC(c2ccccc2)(C2CCN(Cc3ccc(Br)cc3)CC2)C1=O` (stereo not shown) [Compound 128] to `O=C1CCC(c2ccccc2)(C2CCN(Cc3ccc(Cl)cc3)CC2)CN1` (stereo not shown) [Compound 135], the IC50 falls from 3.98 µM to 1 µM (4-fold).

Compared with `O=C1CCC(c2ccccc2)(C2CCN(Cc3ccc(F)cc3)CC2)CN1` (stereo not shown) [Compound 133], `O=C1CCC(c2ccc(F)cc2)(C2CCN(Cc3ccc(Cl)cc3)CC2)CN1` (stereo not shown) [Compound 136] is 2-fold lower in IC50: 1.58 µM for the first, 0.794 µM for the second.

Compared with `O=C1CCC(c2ccc(F)cc2)(C2CCN(Cc3ccc(F)c(Cl)c3)CC2)CN1` (stereo not shown) [Compound 134], `O=C1CCC(c2ccc(F)cc2)(C2CCN(Cc3ccc(Cl)cc3Cl)CC2)CN1` (stereo not shown) [Compound 138] is 2.5-fold lower in IC50: 3.98 µM for the first, 1.58 µM for the second.

Molecule `O=C1CCC(c2ccccc2)(C2CCN(Cc3ccc(Cl)cc3Cl)CC2)CN1` (stereo not shown) [Compound 137] has an IC50 of 0.631 µM.

same assay, conditions: pIC50, -log IC50 (molar) inhibiting 50% of specific I-TAC-induced GTPγS-binding; membranes of human CXCR3-transfected CHO cells

First: O=C1CCC(c2ccccc2)(C2CCN(Cc3ccc(Cl)c(C(F)(F)F)c3)CC2)C(=O)N1 (stereo not shown) [Compound 86]
Second: O=C1CCC(c2ccccc2)(C2CCN(Cc3ccc(Br)cc3)CC2)C(=O)N1 (stereo not shown) [Compound 87]
The IC50 of the first is 2.5-fold higher: 2 µM for the first, 0.794 µM for the second. The second is the more potent here.

Molecule `O=C1CCC(c2ccccc2)(C2CCN(Cc3ccc(Br)cc3)CC2)C(=O)N1` (stereo not shown) [Compound 88] has an IC50 of 1.26 µM.

same assay, conditions: read-out: pIC50 (converted)

Work on `O=C1CCC(c2ccccc2)(C2CCN(Cc3ccc(Cl)c(F)c3)CC2)C(=O)N1` (stereo not shown) [Compound 76] yielded an IC50 of 0.316 µM.

Source: patent US20090030039A1, “Piperidine Derivatives as Cxcr3 Receptor Antagonists” (priority 2006, published 2009)
